{"source": "ChEMBL document CHEMBL4765420", "about": "“Design, synthesis and biological evaluation of novel HDAC inhibitors with improved pharmacokinetic profile in breast cancer” (Eur J Med Chem, 2020)", "key": {"Histone deacetylase 4": {"biological_target": "Histone deacetylase 4 (Homo sapiens, UniProt P56524)", "sequence (P56524 whole entry)": "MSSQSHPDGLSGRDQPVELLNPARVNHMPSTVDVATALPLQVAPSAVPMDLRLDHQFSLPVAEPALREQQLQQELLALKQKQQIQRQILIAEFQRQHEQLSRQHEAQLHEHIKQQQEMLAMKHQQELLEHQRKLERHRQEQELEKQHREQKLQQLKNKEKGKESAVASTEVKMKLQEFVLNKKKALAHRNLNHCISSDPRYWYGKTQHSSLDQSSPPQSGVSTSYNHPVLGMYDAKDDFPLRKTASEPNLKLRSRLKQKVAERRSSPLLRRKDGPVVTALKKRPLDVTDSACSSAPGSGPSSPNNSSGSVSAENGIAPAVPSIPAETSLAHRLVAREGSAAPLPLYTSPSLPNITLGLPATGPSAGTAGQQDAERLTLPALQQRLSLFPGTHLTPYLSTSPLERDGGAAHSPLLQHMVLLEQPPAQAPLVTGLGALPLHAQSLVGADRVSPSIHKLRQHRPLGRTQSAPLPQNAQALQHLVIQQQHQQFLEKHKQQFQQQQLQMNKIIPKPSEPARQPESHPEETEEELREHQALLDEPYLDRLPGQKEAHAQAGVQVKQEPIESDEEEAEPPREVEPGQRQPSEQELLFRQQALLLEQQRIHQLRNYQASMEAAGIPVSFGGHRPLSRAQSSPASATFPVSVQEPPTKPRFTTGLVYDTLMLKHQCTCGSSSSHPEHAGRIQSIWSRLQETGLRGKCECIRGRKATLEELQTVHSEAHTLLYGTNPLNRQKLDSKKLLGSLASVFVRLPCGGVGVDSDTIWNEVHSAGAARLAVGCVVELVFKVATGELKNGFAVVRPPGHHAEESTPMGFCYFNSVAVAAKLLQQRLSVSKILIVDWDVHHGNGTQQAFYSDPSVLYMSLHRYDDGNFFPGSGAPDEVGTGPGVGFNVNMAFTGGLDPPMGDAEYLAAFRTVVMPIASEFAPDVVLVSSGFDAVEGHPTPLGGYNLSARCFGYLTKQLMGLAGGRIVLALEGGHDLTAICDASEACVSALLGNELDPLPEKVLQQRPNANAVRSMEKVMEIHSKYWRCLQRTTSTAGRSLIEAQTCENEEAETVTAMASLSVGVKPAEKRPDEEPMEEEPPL", "assay": "Inhibition of recombinant human N-terminal GST-tagged HDAC4 (627 to end residues) expressed in baculovirus infected Sf9 insect cells using AcLeu-Gly-Lys(Tfa)-AMC as substrate measured after 30 mins by fluorescence assay"}, "MDA-MB-231 [1]": {"test_system": "MDA-MB-231", "assay": "Induction of autophagy in human MDA-MB-231 cells expressing GFP-mRFP-LC3 assessed as increase in LC3 punta aggregation at 2.5 to 10 uM measured after 24 hrs by immunofluorescence assay", "format": "functional, cell-based", "settings": "dose 2.5-10 µM"}, "[2]": {"biological_target": "T1, Polyamine deacetylase HDAC10 (Homo sapiens, UniProt Q969S8)", "T1 sequence (Q969S8 whole entry)": "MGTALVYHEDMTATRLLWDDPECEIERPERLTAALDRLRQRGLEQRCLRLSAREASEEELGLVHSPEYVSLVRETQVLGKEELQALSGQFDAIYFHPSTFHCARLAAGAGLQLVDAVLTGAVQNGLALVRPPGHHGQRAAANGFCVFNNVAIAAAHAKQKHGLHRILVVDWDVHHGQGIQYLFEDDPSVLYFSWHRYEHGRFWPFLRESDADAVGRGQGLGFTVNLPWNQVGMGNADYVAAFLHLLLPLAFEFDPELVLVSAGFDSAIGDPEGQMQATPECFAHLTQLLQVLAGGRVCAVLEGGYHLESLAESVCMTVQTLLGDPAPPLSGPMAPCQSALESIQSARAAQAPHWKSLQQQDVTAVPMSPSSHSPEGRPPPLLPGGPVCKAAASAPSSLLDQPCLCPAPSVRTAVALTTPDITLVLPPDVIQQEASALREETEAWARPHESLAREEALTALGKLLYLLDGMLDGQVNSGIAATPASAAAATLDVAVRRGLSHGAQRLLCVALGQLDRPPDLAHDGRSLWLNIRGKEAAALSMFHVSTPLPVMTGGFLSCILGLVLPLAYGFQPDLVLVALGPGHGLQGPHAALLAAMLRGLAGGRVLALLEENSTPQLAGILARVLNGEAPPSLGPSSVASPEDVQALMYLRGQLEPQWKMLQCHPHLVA", "assay": "Inhibition of recombinant human C-terminal His-tagged HDAC10 expressed in baculovirus infected Sf9 insect cells using Ac-Arg-His-Lys(Ac)-Lys(Ac)-AMC as substrate measured after 30 mins by fluorescence assay"}, "Histone deacetylase 1": {"biological_target": "Histone deacetylase 1 (Homo sapiens, UniProt Q13547)", "sequence (Q13547 whole entry)": "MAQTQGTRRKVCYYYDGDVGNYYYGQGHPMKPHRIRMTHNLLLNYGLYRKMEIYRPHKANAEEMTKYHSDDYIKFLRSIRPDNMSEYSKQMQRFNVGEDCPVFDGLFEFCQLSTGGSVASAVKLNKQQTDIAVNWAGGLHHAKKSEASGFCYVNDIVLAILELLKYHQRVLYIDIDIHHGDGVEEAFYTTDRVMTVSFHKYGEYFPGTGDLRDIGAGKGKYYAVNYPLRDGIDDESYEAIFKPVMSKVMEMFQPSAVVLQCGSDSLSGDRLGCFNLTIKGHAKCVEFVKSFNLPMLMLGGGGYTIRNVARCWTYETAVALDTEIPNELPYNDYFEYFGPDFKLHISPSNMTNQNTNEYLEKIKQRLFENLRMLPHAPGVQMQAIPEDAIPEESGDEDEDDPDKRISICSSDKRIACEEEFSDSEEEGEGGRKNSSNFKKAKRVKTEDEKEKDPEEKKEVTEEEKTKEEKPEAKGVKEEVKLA", "assay": "Inhibition of recombinant human His-tagged HDAC1 expressed in insect cells using Ac-Leu-Gly-Lys(Ac)-AMC as substrate measured after 30 mins by fluorescence assay"}, "MDA-MB-231 [3]": {"test_system": "MDA-MB-231", "assay": "Inhibition of cell migration in human MDA-MB-231 cells assessed as decrease in MMP2 expression at 2.5 to 10 uM measured after 24 hrs Western blot analysis", "format": "functional, cell-based", "settings": "dose 2.5-10 µM"}, "MDA-MB-231 [4]": {"test_system": "MDA-MB-231", "assay": "Induction of apoptosis in human MDA-MB-231 cells assessed as early apoptotic cells at 10 uM measured after 24 hrs by Annexin-V/propidium iodide staining based flow cytometry (reference value: 0.69 to 0.92%)", "format": "functional"}, "MDA-MB-231 [5]": {"test_system": "MDA-MB-231", "assay": "Induction of apoptosis in human MDA-MB-231 cells assessed as necrotic cells at 5 uM measured after 24 hrs by Annexin-V/propidium iodide staining based flow cytometry (reference value: 0.22 to 0.46%)", "format": "functional"}}, "note": "Active and inactive are the calls of the source. No cut-off for these calls is given here."}
{"smiles": "COc1cc(OC)c2c(N3CCS(=O)(=O)CC3)nc(-c3cc(C)c(OCCCCCC(=O)NO)c(C)c3)nc2c1", "values": [{"measurement": "IC50", "setting": "Histone deacetylase 4", "value": "> 1000", "unit": "nM"}, {"measurement": "Activity", "setting": "MDA-MB-231 [1]", "value": "Active"}, {"measurement": "IC50", "setting": "[2]", "value": 78.2, "unit": "nM"}, {"measurement": "IC50", "setting": "Histone deacetylase 1", "value": 99.6, "unit": "nM"}, {"measurement": "Activity", "setting": "MDA-MB-231 [3]", "value": "Active"}, {"measurement": "Activity", "setting": "MDA-MB-231 [4]", "value": 38.66, "unit": "%"}, {"measurement": "Activity", "setting": "MDA-MB-231 [5]", "value": 0.41, "unit": "%"}]}
